Test results from US10457707B2, “Substituted urea depsipeptide analogs as activators of the CLPP endopeptidase” (priority 2015, dated 2019).
≈ marks a conversion by molar mass, not a printed value. *1 amine or outer side, *2 acyl side, *3 side chain or, on linkers, in order; H or OH if unused. Where a SMILES comes first, the peptide text is derived from it. Bridges are numbered along the chain shown (N, C = ends). [ ]: non-standard residue; d: D form. The star is where a group is joined. ξ: configuration not given here. Phe(3,5-F2) = N[C@@H](Cc1cc(F)cc(F)c1)C(=O)O; Pro(4S-Me) = C[C@@H]1CN[C@H](C(=O)O)C1; NHPh(4-CF3) = FC(F)(F)c1ccc(N*)cc1; NH(4-Me-phenyl) = Cc1ccc(N*)cc1; aThr = C[C@H](O)[C@H](N)C(=O)O; Pip = O=C(O)[C@@H]1CCCCN1; NMeA = CN[C@@H](C)C(=O)O; CO = O=C([*:1])[*:2]; ξP = O=C(O)C1CCCN1

Assays:
Format in all cases: cell-based
[1] = tested on: Vero (kidney epithelial cells; ATCC CCL-81); test: Cytotoxicity assay (CellTiter-Glo cell viability, 72 hours); conditions: Vero cells, 72 hours, growth inhibition; read-out: Cytotoxicity IC50
Procedure, shortened: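 Viability measured by CellTiter-Glo luminescence after 72-hour compound exposure (serial dilutions, DMSO control) of Vero monolayers seeded at 5000 cells/well in 10% FBS DMEM. IC50 values are the range of two biologically independent experiments, each run in duplicate.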

[2] = tested on: Bacillus subtilis, ATCC 23857; test: Minimal inhibitory concentration assay (microbroth dilution); conditions: Bacillus subtilis, ATCC23857, read-out: Minimal Inhibitory Concentrations B. subtilis ATCC 23857
Procedure, shortened: (§1)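 Paired MICs against USA 300 and its ClpP-inactivated counterpart test whether killing runs through ClpP. All strains: two-fold broth dilutions from 200 μM final, ~10^5 cfu/mL inoculum, overnight at 37 °C in air, lowest growth-free concentration read by eye.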

[3] = tested on: Enterococcus faecalis, ATCC 33186; test: as above; conditions: Enterococcus faecalis, ATCC33186, read-out: Minimal Inhibitory Concentrations E. faecalis ATCC 33186
Procedure, shortened: as §1

[4] = tested on: Staphylococcus aureus, ATCC 29213; test: as above; conditions: ATCC29213, read-out: Minimal Inhibitory Concentrations S. aureus ATCC 29213
Procedure, shortened: as §1

[5] = tested on: Staphylococcus aureus, NRS70; test: as above; conditions: Staphylococcus aureus, NRS70, read-out: Minimal Inhibitory Concentrations S. aureus NRS70
Procedure, shortened: as §1

[6] = tested on: Streptococcus pyogenes, ATCC 700294; test: as above; conditions: Streptococcus pyogenes, ATCC700294, read-out: Minimal Inhibitory Concentrations S. pyogenes ATCC 700294
Procedure, shortened: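 Plates with two-fold compound dilution series in broth were incubated overnight, aerobically, at 37° C, following CLSI microdilution guidance.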

[7] = tested on: Staphylococcus aureus, USA 300; test: Minimal inhibitory concentration assay; conditions: USA300, read-out: Minimal Inhibitory Concentrations S. aureus USA 300
Procedure, shortened: as §1

[8] = tested on: Streptococcus pneumoniae, R6; test: Minimal inhibitory concentration assay; conditions: read-out: Minimal Inhibitory Concentrations S. pneumoniae R6
Procedure, shortened: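 Microbroth dilution with two-fold serial compound dilutions in broth, incubated aerobically overnight at 37° C. MIC taken as the lowest concentration preventing bacterial growth.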

[9] = tested on: Staphylococcus aureus, USA 300 wherein ClpP is inactivated; test: Minimal inhibitory concentration assay
Procedure, shortened: as §1

| SMILES | IC50 [1] | MIC [2] | MIC [3] | MIC [4] | MIC [5] | MIC [6] | MIC [7] | MIC [8] | Minimal Inhibitory Concentrations S. aureus USA 300 ΔClpP [9] |
| --- | --- | --- | --- | --- | --- | --- | --- | --- | --- |
| Cc1ccc(NC(=O)N[C@@H](Cc2ccccc2)C(=O)N[C@H]2COC(=O)[C@@H]3C[C@@H](C)CN3C(=O)[C@H](C)NC(=O)[C@@H]3CCCCN3C(=O)[C@@H]3CCCN3C2=O)cc1 [Compound 23, (S)—N-((2R,6S,8aS,14aS,20S,23aS)-2,6-dimethyl-5,8,14,19,23-pentaoxooctadecahydro-1H,5H,14H,19H-pyrido[2,1-i]dipyrrolo[2,1-c:2′,1′-l][1]oxa[4,7,10,13]tetraazacyclohexadecin-20-yl)-3-phenyl-2-(3-(p-tolyl)ureido)propanamide] | 74 ± 7.7 µM | < 0.2 µM | < 0.2 µM | 0.4 µM (≈ 0.303 µg/mL) | 0.4 µM (≈ 0.303 µg/mL) | < 0.2 µM | 0.1 µM (≈ 0.0758 µg/mL) | < 0.2 µM | – |
| Cc1ccc(NC(=O)N[C@@H](Cc2cc(F)cc(F)c2)C(=O)N[C@@H]2C(=O)N3CCC[C@H]3C(=O)N3CCCC[C@H]3C(=O)N[C@@H](C)C(=O)N3C[C@@H](C)C[C@H]3C(=O)O[C@H]2C)cc1 [Compound 18, (S)-3-(3,5-difluorophenyl)-2-(3-(p-tolyl)ureido)-N-((2R,6S,8aS,14aS,20S,21S,23aS)-2,6,21-trimethyl-5,8,14,19,23-pentaoxooctadecahydro-1H,5H,14H,19H-pyrido[2,1-i]dipyrrolo[2,1-c:2′,1′-l][1]oxa[4,7,10,13]tetraazacyclohexadecin-20-yl)propanamide] ({NH(4-Me-phenyl)-CO}-[Phe(3,5-F2)][aThr]P[Pip]A[Pro(4S-Me)]; ester 2-C) | 26.7 ± 3.6 µM | < 0.1 µM | 0.8 µM (≈ 0.646 µg/mL) | 0.1 µM (≈ 0.0808 µg/mL) | 0.1 µM (≈ 0.0808 µg/mL) | < 0.1 µM | 0.1 µM (≈ 0.0808 µg/mL) | < 0.1 µM | 100 µM |
| C[C@H]1C[C@H]2C(=O)O[C@@H](C)[C@H](NC(=O)[C@H](Cc3cc(F)cc(F)c3)NC(=O)Nc3ccc(C(F)(F)F)cc3)C(=O)N3CCC[C@H]3C(=O)N3CCCC[C@H]3C(=O)N[C@@H](C)C(=O)N2C1 [Compound 19, (S)-3-(3,5-difluorophenyl)-2-(3-(4-(trifluoromethyl)phenyl)ureido)-N-((2R,6S,8aS,14aS,20S,21S,23aS)-2,6,21-trimethyl-5,8,14,19,23-pentaoxooctadecahydro-1H,5H,14H,19H-pyrido[2,1-i]dipyrrolo[2,1-c:2′,1′-l][1]oxa[4,7,10,13]tetraazacyclohexadecin-20-yl)propanamide] ({NHPh(4-CF3)-CO}-[Phe(3,5-F2)][aThr]P[Pip]A[Pro(4S-Me)]; ester 2-C) | 36.8 ± 4.1 µM | < 0.1 µM | 0.39 µM (≈ 0.336 µg/mL) | 0.1 µM (≈ 0.0862 µg/mL) | 0.1 µM (≈ 0.0862 µg/mL) | 0.4 µM (≈ 0.345 µg/mL) | 0.1 µM (≈ 0.0862 µg/mL) | 0.8 µM (≈ 0.689 µg/mL) | 6.2 µM |
| C[C@@H]1NC(=O)[C@@H]2CCCCN2C(=O)[C@@H]2CCCN2C(=O)[C@@H](NC(=O)[C@H](Cc2cc(F)cc(F)c2)NC(=O)Nc2ccc(C(F)(F)F)cc2)[C@H](C)OC(=O)[C@@H]2CCCN2C1=O [Compound 16, (S)-3-(3,5-difluorophenyl)-N-((6S,8aS,14aS,20S,21S,23aS)-6,21-dimethyl-5,8,14,19,23-pentaoxooctadecahydro-1H,5H,14H,19H-pyrido[2,1-i]dipyrrolo[2,1-c:2′,1′-l][1]oxa[4,7,10,13]tetraazacyclohexadecin-20-yl)-2-(3-(4-(trifluoromethyl)phenyl)ureido)propanamide] ({NHPh(4-CF3)-CO}-[Phe(3,5-F2)][aThr]P[Pip]AP; ester 2-C) | 74.3 ± 9 µM | 0.4 µM (≈ 0.339 µg/mL) | < 0.1 µM | 0.4 µM (≈ 0.339 µg/mL) | 0.8 µM (≈ 0.678 µg/mL) | 1.5 µM (≈ 1.27 µg/mL) | 0.8 µM (≈ 0.678 µg/mL) | 0.8 µM (≈ 0.678 µg/mL) | 3.1 µM |
| Cc1ccc(NC(=O)N[C@@H](Cc2cc(F)cc(F)c2)C(=O)N[C@@H]2C(=O)N3CCCC3C(=O)N(C)[C@@H](C)C(=O)N[C@@H](C)C(=O)N3CCCC3C(=O)O[C@H]2C)cc1 (stereo partly drawn) [Compound 25, (2S)-3-(3,5-difluorophenyl)-N-((6S,9S,11aS,17S,18S)-6,9,10,18-tetramethyl-5,8,11,16,20-pentaoxohexadecahydro-1H,5H,16H-dipyrrolo[2,1-c:2′,1′-l][1]oxa[4,7,10,13]tetraazacyclohexadecin-17-yl)-2-(3-(p-tolyl)ureido)propanamide] ({NH(4-Me-phenyl)-CO}-[Phe(3,5-F2)][aThr][ξP][NMeA]A[ξP]; ester 2-C) | 10.8 ± 1 µM | 0.02 µM (≈ 0.0154 µg/mL) | – | 0.78 µM (≈ 0.599 µg/mL) | 0.78 µM (≈ 0.599 µg/mL) | 1 µM (≈ 0.768 µg/mL) | 0.78 µM (≈ 0.599 µg/mL) | 0.254 µM (≈ 0.195 µg/mL) | 200 µM |
